Measured values published in paper PMC6733959, “Synthesis and Evaluations of Novel Apocynin Derivatives as Anti-Glioma Agents” (Frontiers in Pharmacology, 2019).

Columns and labels:
[1] = tested on: ROS levels in U87 cells; assay: Intracellular ROS levels (DCF, flow cytometry), U87 cells; type: cell-based, human; settings: 20 and 50 μM, 48 h, P < 0.05
Method: (§1) Intracellular reactive oxygen species (ROS) levels were detected using Reactive Oxygen Species Assay Kit (Jiancheng Bioengineering, Nanjing, China) as per the manufacturer’s instruction. Brieﬂy, after treatment with indicated concentrations of test compound (20, 50 μM) for 48 h, the cells were incubated in 1 ml 2,7-dichloroﬂuorescin diacetate working solution (100 μM) for 30 min at 37°C in the dark, and washed with PBS. Then ﬂuorescence intensities of intracellular DCF were detected using a FACS Calibur ﬂow cytometer (Becton-Dickinson, San Jose, CA, USA). H2O2 treatment group was used as the positive control group.

[2] = tested on: ROS levels in C6 cells; assay: Intracellular ROS levels (DCF, flow cytometry), C6 cells; type: cell-based, rat; settings: 20 and 50 μM, 48 h, P < 0.05
Method: as §1

[3] = tested on: U87 cells; assay: Apoptosis by Annexin V-FITC/PI staining, U87 cells; type: cell-based, human; settings: 48 h, mean ± SD
Method: The effects of test compound on apoptosis were detected by Annexin V-FITC/PI staining. Briefly, after treatment with indicated concentrations of test compounds (20, 50 μM) for 48 h, the cells were collected and resuspended in 500-μl detection buffer. Then 5μl PI and 5μl Annexin V-FITC were added to the detection buffer. Then, cells were incubated for 15 min in the dark and analyzed using Flow cytometer (Becton Dickinson) and WinMDI 2.8 software (Scripps Institute, La Jolla, CA, USA).

[4] = tested on: C6 glioma; assay: Rat C6 glioma model; type: in vivo; settings: C6 glioma-bearing Wistar rats, 25 mg/kg i.p. daily
Method: C6 glioma model was established as previously reported ([Xu etal., 2016]). The C6 glioma cells in the logarithmic growth phase were collected for implantation. Male Wistar rats (male, 160–180g) were anesthetized with 10% chloral hydrate, and then a hole (1 mm diameter) was drilled in the cranial bone. C6 cells in PBS were injected slowly (3 × 10^6 cells/rat).
Tumors in the brains of the rats were detected by Bruker 7.0 T Micro-MRI using a T2W RARE sequence (TR/TE 3000/15 ms; slice thickness, 1.0 mm; flip angle, 180°; Matrix 256×256; slice gap, 1.0 mm; FOV, 33×33 mm; time, 4.8 min) 7 days after implantation. Tumor volumes (V) were calculated by the following formula: V = (4/3 × π × LHW)/8, where L is the maximum anteroposterior diameter, H and W are the height and width. Then the rats were sacrificed, and the brain tissues were fixed with formalin, embedded in paraffin, sectioned, and subjected to hematoxylin/eosin (HE) staining and immunohistochemical staining for glial fibrillary acidic protein (GFAP) as previously described ([Xu et al., 2016]). The sections from each animal were analyzed by a pathologist. Only rats with maximum intracerebral tumor diameter of >5.0 mm were used.
After the successful implantation, the rats were randomly divided into […] and treated with different drugs by intraperitoneal injection daily: control group (PBS, n = 6), TMZ group (25 mg/kg, n = 6), D14 group (25 mg/kg, n = 6), and D31 group (25 mg/kg, n = 6). The body weights were recorded everyday after administration. Thirteen days after treatment, brain tumors in the rats were detected by Bruker 7.0 T Micro-MRI as described above. Tumor volumes were calculated and recorded as above.

[5] = tested on: human glioma U251 cells; assay: Anti-glioma MTT assay, U251 cells; type: cell-based
Method: The anti-glioma effects of these compounds were evaluated by MTT assay in rat C6 glioma cells, human glioma U87 and U251 cells, and BMECs cells. Brieﬂy, cells were seeded at the density of 4,000 cells/well in 96-well plates overnight. For the first screening, the cells were incubated with 10, 20, 100 μM compounds for 48 h. Then cell viabilities were detected by MTT assay as described above. For the second screening, the cells were incubated with 6.25-, 12.5-, 25-, 50-, and 100μM compounds for 48 and 96 h, and then detected by MTT assay. The OD of each well was measured at 490 nm on an ELISA microplate reader. The inhibitory rates and IC50 values were calculated.

[6] = tested on: NADPH oxidase (NOX); assay: NOX activity determination, U87 cells; type: cell-based, human; settings: 20 and 50 μM
Method: The effects of candidate drug on NOX activities were measured using cytochrome c reductase (NADPH) Assay Kit (Sigma-Aldrich, St. Louis, MO, USA). Brieﬂy, after the compound treatment (20, 50 μM), the cells were collected and homogenized in an isotonic buffer ([…]), and centrifuged at 1,000 g to obtain the post-nuclear supernatants. Then 50μl samples were added to 950μl working solution (at 25°C) in a 1ml cuvette and mixed by inversion. Then 20μl cytochrome c oxidase inhibitor solution was added. After reaction with 100 μl NADPH solution, the cytochrome c absorbance was monitored at 550 nm by a spectrophotometer.

[7] = tested on: NF-κB pathway-related proteins; assay: Western blot of NF-κB pathway-related proteins, U87 cells; type: cell-based, human; settings: 20 and 50 μM, 48 h
Method: (§2) Briefly, after treatment with indicated concentrations of test compound (20, 50 μM) for 48 h, the cells were collected, and total cell lysates and nucleus fractions were extracted. Twenty micrograms of cellular protein were subjected to electrophoresis on 12% SDS-polyacrylamide gels and then transferred to polyvinylidene difluoride membranes. The membranes were first incubated with 5% BSA for 2 h at 37°C and then incubated with the first antibodies overnight at 4°C. After HRP-labeled secondary antibodies (1:1,000-dilution) incubation, protein bands were visualized with the enhanced chemiluminescence (ECL) detection solution. The intensity of bands was quantified using ImageJ 1.43 software (National Institutes of Health, Bethesda, MD, USA).

[8] = tested on: NF-κB pathway-related proteins; assay: Western blot of NF-κB pathway-related proteins, C6 cells; type: cell-based, rat; settings: 20 and 50 μM, 48 h
Method: as §2

[9] = tested on: rat BMECs; assay: Cytotoxicity of apocynin derivatives on rat BMECs (MTT, 24 h); type: cell-based; settings: 100 μM, vs control, P < 0.05
Method: Rat brain microvascular endothelial cells (BMECs) were separated from the cerebral cortex of 18-day-old male Sprague-Dawley rats as described previously ([Biegel et al., 1995]). Briefly, the cerebral cortical tissues were dissected from meninges after the rats were sacrificed, then the tissues were homogenated in physiological buffer solution (pH 7.4). After centrifugation, the pellets were collected, and the microvascular segments were then digested with 0.1% collagenase II at 37°C for 1 h. […] The second passage was used for co-culture of BBB cellular models.
Rat BMECs were collected and seeded into 96-well culture plates at a density of 7.5 × 10^3 cells/well overnight. The cells were treated with different concentrations of the compounds (10, 20, and 100 μM) for 24 h, respectively. Then, 20-μl MTT (5 mg/ml) in fresh medium was added to each well and incubated for another 4 h. Finally, 150μl dimethyl sulfoxide (DMSO) was added to dissolve formazan crystals, and the absorbance was detected at 490 nm in a multiwall-plate reader (BioTek ELx800).

Compound: COc1cc(C(=O)CSCc2ccccc2Cl)ccc1O [Compound D31, 2-((2-Chlorobenzyl)thio)-1-(4-Hydroxy-3-Methoxyphenyl)Ethan-1-One]
- Fluorescence intensity of DCF (ROS generation) vs control [1]: significant increases
- Fluorescence intensity of DCF (ROS generation) vs control [2]: significant increases
- Apoptotic cell rate ([3]; 20 μM): 16.7 ± 3.1%
- Apoptotic cell rate ([3]; 50 μM): 29.7 ± 4.7%
- Body weight changes vs control group [4]: no obvious body weight changes
- Tumor volume vs control group ([4]; MRI 13 days after treatment): significantly decreased
- IC50 ([5]; U-251, 48 h): 40.1 µM
- IC50 ([5]; U-251, 96 h): 35.1 µM
- Effect on NOX activities vs control [6]: no obvious effects
- IκBα expression [7]: obviously decreased
- nucleus p-NF-κB p65 expression [7]: obviously increased
- p-IKKα/β expression [7]: obviously increased
- IκBα expression [8]: obviously decreased
- nucleus p-NF-κB p65 expression [8]: obviously increased
- p-IKKα/β expression [8]: obviously increased
- Effect on cell viability of rat BMECs [9]: significantly inhibit the cell viability
